Experimental findings from patent US6878736B1, “Histamine H3 receptor ligands” (James Black Foundation Limited, priority 1998, dated 2005) are described below.

Test [1] concerns the target T1, Histamine H3 receptor (Cavia porcellus, UniProt Q9JI35). Nature of the test: Histamine H3 radioligand binding assay, guinea pig cortex ([3H]-R-α-methylhistamine). To be noted: guinea pig cortex membranes, competition with 1 nM [3H]-R-α-methylhistamine; for Ki: read-out: pKi (Guinea pig cortex) (converted). The essentials: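 Male Dunkin Hartley guinea pig cortical membranes incubated 165 min at 21±3 °C in 20 mM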

Test [2] has as its target T1, Histamine H3 receptor. The test can be described thus: Histamine H3 functional assay, guinea pig ileum (ileal longitudinal muscle, myenteric plexus). The arrangement: species or system tissue. To be noted: antagonist affinity from rightward shift of R-(α)-methylhistamine E/[A] curves (Schild), typical variance ±0.15 log units; for Kb: read-out: pKb (Guinea pig ileum) (converted). In short, it runs like this:
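Longitudinal muscle–myenteric plexus strips from male Dunkin-Hartley guinea pigs (250-300 g), Krebs-Henseleit buffer at 37±1° C, field-stimulated at 0.1 Hz, 0.5 msec, supramaximal voltage; isometric recording. Cumulative R-(α)-methylhistamine E/[A] curves as % inhibition of twitch height; antagonist affinity by Schild analysis of rightward shift.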

Structures can show the parent of a compound that is named as a salt. Where only a bound is given, the exact number is not on record here.

T1 sequence (Q9JI35 whole entry): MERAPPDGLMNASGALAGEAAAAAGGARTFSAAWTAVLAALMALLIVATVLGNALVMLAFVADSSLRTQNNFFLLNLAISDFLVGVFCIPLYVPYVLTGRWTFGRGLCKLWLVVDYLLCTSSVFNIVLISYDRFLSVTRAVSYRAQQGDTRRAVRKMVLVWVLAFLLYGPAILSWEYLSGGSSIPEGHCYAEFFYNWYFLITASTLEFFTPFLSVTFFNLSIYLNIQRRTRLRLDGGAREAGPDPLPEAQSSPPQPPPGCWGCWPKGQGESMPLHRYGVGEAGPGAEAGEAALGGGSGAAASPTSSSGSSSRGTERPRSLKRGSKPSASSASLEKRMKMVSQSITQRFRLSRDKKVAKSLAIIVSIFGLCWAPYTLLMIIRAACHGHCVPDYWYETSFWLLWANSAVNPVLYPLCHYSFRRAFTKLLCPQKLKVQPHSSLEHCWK

For the compound `CN1C[C@H](O)C[C@@H]1CCCNS(=O)(=O)NCc1ccc(Cl)cc1` [Example 132, N-(4-Chlorobenzyl)-N′-(3-(4R-hydroxy-1-methyl-pyrrolidin-2S-yl)-propyl)-sulfamide], at Histamine H3 receptor [1], the “pKi (Guinea pig cortex)” value is given as 6.9. Also, the “pKb (Guinea pig ileum)” value at Histamine H3 receptor [2] turned out to be 5.8.

On to `CN1CCC[C@H]1CCCN(C)S(=O)(=O)NCc1ccc(Cl)cc1` [Example 122, N-(4-Chlorobenzyl)-N′-methyl-N′-(3-(1-methyl-pyrrolidin-2S-yl)propyl)-sulfamide], for which the Ki at Histamine H3 receptor [1] is 0.126 µM. At Histamine H3 receptor [2], the Kb is 0.316 µM.

Consider `O=S(=O)(NCCCN1CCCC1)NCc1ccc(Cl)cc1` [Example 135, N-(4-Chlorobenzyl)-N′-(3-pyrrolidin-1-yl-propyl)-sulfamide], for which the Ki on Histamine H3 receptor [1] was 0.316 µM. The Kb at Histamine H3 receptor [2] is 0.631 µM.

With `N=C(N)N(CCCCCCN1CCCC1)Cc1ccc(Cl)cc1` [Example 70, N-(4-Chlorobenzyl)-N-(6-pyrrolidin-1-yl-hexyl)-guanidine bis-hydrochloride], the Ki on Histamine H3 receptor [1] was 0.00501 µM. The Kb at Histamine H3 receptor [2] is 0.00398 µM.

Regarding `CC(C)CN1CCC[C@H]1CCCNS(=O)(=O)NCc1ccc(Cl)cc1` [Example 119], the Ki at Histamine H3 receptor [1] was 0.0158 µM. The Kb on Histamine H3 receptor [2] was 2 µM.

As for `CN1CCC[C@H]1CCCNS(=O)(=O)Cc1ccccc1` [Example 100, N-(3-(1-Methyl-pyrrolidin-2S-yl)-propyl)-phenyl-methanesulfonamide], the Ki at Histamine H3 receptor [1] is 0.2 µM. For the same compound, the Kb on Histamine H3 receptor [2] is 0.501 µM.

Regarding `N=C(NCCCN1CCCC1)Nc1ccc(Cl)cc1` [Example 19, N-(4-Chlorophenyl)-N′-(3-pyrrolidin-1-yl-propyl)-guanidine], on Histamine H3 receptor [1], the Ki is 0.0501 µM. In addition, the Kb at Histamine H3 receptor [2] was 1 µM.

On to `CN1CCC[C@H]1CCCNS(=O)(=O)NCc1ccc(Br)cc1` [Example 113, N-(4-Bromobenzyl)-N′-(3-(1-methyl-pyrrolidin-2S-yl)-propyl)-sulfamide], for which the Ki on Histamine H3 receptor [1] is 0.1 µM. For the same compound, at Histamine H3 receptor [2], the Kb was 0.2 µM.

Consider `N=C(NCCCCCN1CCCC1)N1CCc2ccccc2C1` [Example 51, N-(5-Pyrrolidin-1-yl-pentyl)-3,4-dihydro-1H-isoquinoline-2-carboxamidine bis-hydrochloride], for which, at Histamine H3 receptor [1], the Ki is 0.00794 µM. Further, the Kb at Histamine H3 receptor [2] was 0.1 µM.

For `CN1CCC[C@H]1CCCNS(=O)(=O)CCC1CCCCC1` [Example 142, N-(3-(1-Methyl-pyrrolidin-2S-yl)-propyl)-2-cyclohexyl-ethanesulfonamide], the Ki at Histamine H3 receptor [1] is 0.631 µM. Moreover, the Kb on Histamine H3 receptor [2] is 2 µM.

In the case of `CN1CCC[C@H]1CCCN(CCCc1ccc(Cl)cc1)S(=O)(=O)NCc1ccc(Cl)cc1` [Example 131, N-(4-Chlorobenzyl)-N′-(3-(4-chlorophenyl)propyl)-N′-(3-(1-methyl-pyrrolidin-2S-yl)propyl)-sulfamide], at Histamine H3 receptor [1], the Ki is 1 µM. The Kb on Histamine H3 receptor [2] was more than 3.16 µM.

Consider `N=C(N)N(CCCCCCN1CCCC1)Cc1ccccc1` [Example 73, N-Benzyl-N-(6-pyrrolidin-1-yl-hexyl)-guanidine bis-hydrochloride], for which the Ki at Histamine H3 receptor [1] is 0.00158 µM. Besides, the Kb on Histamine H3 receptor [2] was 0.0158 µM.

As to `CN1CCC[C@H]1CCCNS(=O)(=O)NCc1ccc(Cl)cc1` [Example 107, N-(4-Chlorobenzyl)-N′-(3-(1-methyl-pyrrolidin-2S-yl)-propyl)-sulfamide], the Ki at Histamine H3 receptor [1] was 0.1 µM. Further, the Kb on Histamine H3 receptor [2] was 0.158 µM.

In the case of `CN1CCC[C@H]1CCCNS(=O)(=O)CCc1ccc(Cl)cc1` [Example 102, N-(3-(1-Methyl-pyrrolidin-2S-yl)-propyl)-2-(4-chlorophenyl)-ethanesulfonamide], the Ki on Histamine H3 receptor [1] was 0.0631 µM. In addition, the Kb on Histamine H3 receptor [2] was 0.316 µM.

As to `O=S(=O)(NCCN1CCCC1)c1ccc2ccccc2c1` [Example 81, N-(2-Pyrrolidin-1-yl-ethyl)-2-naphthalenesulfonamide], the Ki on Histamine H3 receptor [1] was 0.126 µM. In addition, the Kb on Histamine H3 receptor [2] was 1.26 µM.

In the case of `N=C(NCCCC1CCCCC1)NCCCN1CCCC1` [Example 43, N-(3-Cyclohexyl-propyl)-N′-(3-pyrrolidin-1-yl-propyl)-guanidine bis-hydrochloride], at Histamine H3 receptor [1], the Ki was 0.1 µM. Also, the Kb on Histamine H3 receptor [2] was 0.2 µM.

In the case of `O=S(=O)(NCCCCN1CCCC1)c1ccc2ccccc2c1` [Example 83, N-(4-Pyrrolidin-1-yl-butyl)-2-naphthalenesulfonamide], the Ki at Histamine H3 receptor [1] is 0.251 µM. Besides, the Kb on Histamine H3 receptor [2] is 0.631 µM.

With `N=C(N)N(CCCCCCN1CCCC1)Cc1ccc(Br)cc1` [Example 74, N-(4-Bromobenzyl)-N-(6-pyrrolidin-1-yl-hexyl)-guanidine bis-hydrochloride], at Histamine H3 receptor [1], the Ki is 0.00794 µM. Besides, the Kb on Histamine H3 receptor [2] is 0.0126 µM.

Consider `Cl.Cl.N=C(NCCOCCN1CCCC1)NCC12CC3CC(CC(C3)C1)C2` [Example 59, N-Adamantan-1-yl-methyl-N′-(2-(2-pyrrolidin-1-yl-ethoxy)-ethyl)-guanidine bis-hydrochloride], for which, at Histamine H3 receptor [1], the “pKi (Guinea pig cortex)” value is reported as 8.0. Besides, the “pKb (Guinea pig ileum)” value on Histamine H3 receptor [2] turned out to be 7.0.

`N=C(NCCCN1CCCC1)NCCC1CCCCC1` [Example 42, N-(2-Cyclohexyl-ethyl)-N′-(3-pyrrolidin-1-yl-propyl)-guanidine bis-hydrochloride]: the Ki on Histamine H3 receptor [1] was 0.0251 µM. Besides, the Kb on Histamine H3 receptor [2] was 0.398 µM.

With `N=C(NCCCCCN1CCCC1)NCc1ccccc1` [Example 47, N-Benzyl-N′-(5-pyrrolidin-1-yl-pentyl)-guanidine bis-hydrochloride], on Histamine H3 receptor [1], the Ki is 0.00398 µM. Besides, the Kb at Histamine H3 receptor [2] was 0.0501 µM.

For `O=S(=O)(NCCCCCN1CCCC1)NCc1ccc(Cl)cc1` [Example 141, N-(4-Chlorobenzyl)-N′-(5-pyrrolidin-1-yl-pentyl)-sulfamide], at Histamine H3 receptor [1], the Ki was 0.251 µM. Also, at Histamine H3 receptor [2], the Kb was 0.501 µM.

Consider `N=C(NCCCCN1CCCC1)NCc1ccc(Cl)cc1` [Example 17], for which the Ki on Histamine H3 receptor [1] is 0.00501 µM. The Kb on Histamine H3 receptor [2] was 0.0501 µM.

`N=C(NCCCN1CCCC1)NCc1cccc(Br)c1` [Example 10, N-(3-Bromobenzyl)-N′-(3-pyrrolidin-1-yl-propyl)-guanidine bis-hydrochloride]: at Histamine H3 receptor [1], the Ki was 0.0251 µM. For the same compound, at Histamine H3 receptor [2], the Kb is 0.316 µM.

Take `Cl.Cl.N=C(NCCCCCN1CCCCC1)NCC12CC3CC(CC(C3)C1)C2` [Example 60, N-Adamantan-1-yl-methyl-N′-(5-piperidin-1-yl-pentyl)-guanidine bis-hydrochloride]: the “pKi (Guinea pig cortex)” value on Histamine H3 receptor [1] is given as 8.0. Moreover, the “pKb (Guinea pig ileum)” value at Histamine H3 receptor [2] was found to be 8.1.

As to `Cl.Cl.N=C(NCCCN1CCCC1)NCc1ccc2ccccc2c1` [Example 4, N-Naphthalen-2-yl-methyl-N′-(3-pyrrolidin-1-yl-propyl)-guanidine bis-hydrochloride], at Histamine H3 receptor [1], the “pKi (Guinea pig cortex)” value stood at 7.1. In addition, at Histamine H3 receptor [2], the “pKb (Guinea pig ileum)” value was determined as 6.5.

Take `Cc1ccccc1CNC(=N)NCCCCCN1CCCC1` [Example 48, N-(2-Methylbenzyl)-N′-(5-pyrrolidin-1-yl-pentyl)-guanidine bis-hydrochloride]: at Histamine H3 receptor [1], the Ki is 0.00316 µM. The Kb on Histamine H3 receptor [2] was 0.0251 µM.

As to `CN1CCN(CCCCCNC(=N)NCC23CC4CC(CC(C4)C2)C3)CC1.Cl.Cl.Cl` [Example 63, N-Adamantan-1-yl-methyl-N′-(5-(4-methyl-piperazin-1-yl)-pentyl)-guanidine tris-hydrochloride], at Histamine H3 receptor [1], the “pKi (Guinea pig cortex)” value was determined as 7.7. Besides, on Histamine H3 receptor [2], the “pKb (Guinea pig ileum)” value is 7.4.

As for `Cl.Cl.N=C(NCCCCCCN1CCCC1)NCC12CC3CC(CC(C3)C1)C2` [Example 31, N-Adamantan-1-yl-methyl-N′-(6-pyrrolidin-1-yl-hexyl)-guanidine bis-hydrochloride], the “pKi (Guinea pig cortex)” value at Histamine H3 receptor [1] (bis-hydrochloride) came to 8.4. For the same compound, the “pKb (Guinea pig ileum)” value on Histamine H3 receptor [2] is listed as 8.0.

As to `N=C(NCCCN1CCCC1)NCCC12CC3CC(CC(C3)C1)C2` [Example 33, N-(2-Adamantan-1-yl-ethyl)-N′-(3-pyrrolidin-1-yl-propyl)-guanidine bis-hydrochloride], at Histamine H3 receptor [1], the Ki is 0.0794 µM. The Kb at Histamine H3 receptor [2] was 0.2 µM.

With `CN1CCC[C@H]1CCCNS(=O)(=O)Cc1ccc(Br)cc1` [Example 101, N-(3-(1-Methyl-pyrrolidin-2S-yl)-propyl)-(4-bromophenyl)-methanesulfonamide], the Ki on Histamine H3 receptor [1] is 0.251 µM. In addition, the Kb on Histamine H3 receptor [2] is 1 µM.

Take `N=C(NCCCCCN1CCCC1)NCC1CCCCO1` (stereo not drawn) [Example 58, N-(5-Pyrrolidin-1-yl-pentyl)-N′-(tetrahydro-pyran-2-yl-methyl)-guanidine bis-hydrochloride]: the Ki at Histamine H3 receptor [1] is 0.00316 µM. Moreover, the Kb on Histamine H3 receptor [2] is 0.2 µM.

As for `COC(=O)c1ccc(CNC(N)=NCCCN2CCCC2)cc1` [Example 14, 4-(N′-(3-Pyrrolidin-1-yl-propyl)-guanidinomethyl)-benzoic acid methyl ester bis-hydrochloride], the Ki on Histamine H3 receptor [1] was 0.0251 µM. Also, at Histamine H3 receptor [2], the Kb is 1 µM.

In the case of `Cl.Cl.N=C(NCCCN1CCCC1)NCc1ccc(-c2ccccc2)cc1` [Example 12, N-Biphenyl-4-yl-methyl-N′-(3-pyrrolidin-1-yl-propyl)-guanidine bis-hydrochloride], on Histamine H3 receptor [1], the “pKi (Guinea pig cortex)” value stood at 6.2. Also, the “pKb (Guinea pig ileum)” value on Histamine H3 receptor [2] was found to be 6.3.

As to `CN1CCCC1CCCCNS(=O)(=O)NCc1ccc(Cl)cc1` (stereo not drawn) [Example 116, N-(4-Chlorobenzyl)-N′-(4-(1-methyl-pyrrolidin-2S-yl)-butyl)-sulfamide], the Ki at Histamine H3 receptor [1] was 0.126 µM. Besides, the Kb on Histamine H3 receptor [2] was 0.2 µM.

On to `CN1CCCC1CCCCCNS(=O)(=O)Cc1ccc(Cl)cc1` (stereo not drawn) [Example 105, N-(5-(1-Methyl-pyrrolidin-2S-yl)-pentyl)-(4-chlorophenyl)-methanesulfonamide], for which the Ki on Histamine H3 receptor [1] is 0.398 µM. Besides, on Histamine H3 receptor [2], the Kb was 0.501 µM.
